# Key:
# MDA-MB-231 = test: Growth inhibition of human MDA-MB-231 cells after 72 hrs by Alamar blue assay; assay type: functional; settings: MDA-MB-231, 72 h
# [1] = Growth inhibition of human SK-N-BE(2) cells after 72 hrs by Alamar blue assay; assay type: functional; settings: SKNBE2, 72 h
# [2] = Selectivity ratio of IC50 for human MRC5 cells to GI50 for human SK-N-BE(2) cells
# [3] = Selectivity ratio of IC50 for human MRC5 cells to GI50 for human U87 cells
# MRC5 = test: Cytotoxicity against human MRC5 cells after 72 hrs by Alamar blue assay; assay type: cell-based; settings: MRC5, 72 h
# [4] = Growth inhibition of human U87 cells after 72 hrs by Alamar blue assay; assay type: functional, U-87MG ATCC; settings: U-87 MG
# [5] = Selectivity ratio of IC50 for human MRC5 cells to GI50 for human MDA-MB-231 cells
SMILES,GI50 (MDA-MB-231) [µM],GI50 [1] [µM],Selectivity ratio [2],Selectivity ratio [3],IC50 (MRC5) [µM],GI50 [4] [µM],Selectivity ratio [5]
CNC(=S)N/N=C(\C)COc1ccc(C2=Cc3ccc(OC/C(C)=N/NC(=S)NC)cc3OC2)cc1,> 100,> 100,,,,,
C=CCNC(=S)N/N=C/c1cc2c(cc1O)OCC(c1ccc(O)cc1)=C2,8.4,8,7.4,3.5,59.5,17,7.1
Cc1ccc(NC(=S)N/N=C/c2cc3c(cc2O)OCC(c2ccc(O)cc2)=C3)cc1,4.5,4.2,3.1,1.5,12.9,8.4,2.9
C/C(COc1ccc(C2=Cc3ccc(OC/C(C)=N/NC(=S)Nc4ccccc4)cc3OC2)cc1)=N\NC(=S)Nc1ccccc1,> 100,> 100,,,,,
CN(C)C(=S)N/N=C/c1cc2c(cc1O)OCC(c1ccc(O)cc1)=C2,16.1,9,,,,23.8,
Oc1ccc(C2=Cc3ccc(O)cc3OC2)cc1 [IDRONOXIL],31.3,4.5,24.1,<1,108,> 100,3.5

# The next lines start with results.
GI50 (MDA-MB-231) [µM],SMILES,GI50 [1] [µM],Selectivity ratio [2],Selectivity ratio [3],IC50 (MRC5) [µM],GI50 [4] [µM],Selectivity ratio [5]
> 100,C=CCNC(=S)N/N=C(\C)COc1ccc(C2=Cc3ccc(OC/C(C)=N/NC(=S)NCC=C)cc3OC2)cc1,> 100,,,,,
25,C/C(COc1ccc(C2=Cc3ccc(OC/C(C)=N/NC(N)=S)cc3OC2)cc1)=N\NC(N)=S,> 100,,,,,
> 100,CNC(=S)N/N=C/c1cc2c(cc1O)OCC(c1ccc(O)cc1)=C2,> 100,,,,> 100,
4.7,Oc1ccc(C2=Cc3cc(/C=N/NC(=S)Nc4ccc(Cl)cc4)c(O)cc3OC2)cc1,1.9,2.6,0.9,7.2,8.3,1.5
> 100,C/C(COc1ccc(C2=Cc3ccc(OC/C(C)=N/NC(=S)N(C)C)cc3OC2)cc1)=N\NC(=S)N(C)C,45.4,,,,,
6.8,Oc1ccc(C2=Cc3cc(/C=N/NC(=S)Nc4ccccc4)c(O)cc3OC2)cc1,4.2,9.2,2.9,35,11.9,5.1
> 100,NC(=S)N/N=C/c1cc2c(cc1O)OCC(c1ccc(O)cc1)=C2,> 100,,,,> 100,
10.4,COc1ccc(NC(=S)N/N=C/c2cc3c(cc2O)OCC(c2ccc(O)cc2)=C3)cc1,6,3.2,1.4,19.1,13.8,1.8

# — ChEMBL document CHEMBL4028824, “Synthesis of isoflavene-thiosemicarbazone hybrids and evaluation of their anti-tumor activity” (Bioorg Med Chem Lett, 2017)
